Assay results as given in paper PMC8294059, “Identification and Immune Assessment of T Cell Epitopes in Five Plasmodium falciparum Blood Stage Antigens to Facilitate Vaccine Candidate Selection and Optimization” (Frontiers in Immunology, 2021).
Where a SMILES comes first, the peptide text is derived from it.

molecular target: HLA-A*2402 (Homo sapiens, UniProt P04439, D101N/D140Y/D185E/E176V/E190D/F33S/G103R/G107R/I119L/I121M/I306V/K335N/L105A/L180Q/L300P/N151K/N90K/Q86E/Q94H/R106L/R138H/R89G/T104I/T345S/V100E/W191G/Y123F); assay: In vitro class I HLA binding assay (fluorescence polarization competition); conditions: allele A*2402; cell-free competition, fluorescence polarization at 72 hours; Non-binder = no dose-dependent inhibition; read-out: IC50
Outline: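 Cell-free competition assay: HLA heat-treated 53°C for 15 min to strip endogenous peptides, then mixed with fluorescent high-affinity control peptide and test peptides for 72 h to equilibrium. Displacement read by fluorescence polarization as percent inhibition; IC50 derived from a concentration range.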

Row | Compound | IC50
1 | CC[C@H](C)[C@H](NC(=O)[C@H](CCCCN)NC(=O)[C@H](CC(N)=O)NC(=O)[C@H](CCC(=O)O)NC(=O)[C@H](C)NC(=O)[C@H](CCCCN)NC(=O)[C@@H](NC(=O)[C@H](CO)NC(=O)[C@H](Cc1ccc(O)cc1)NC(=O)CN)[C@@H](C)O)C(=O)O [EBA175_0255] (H-GYSTKAENKI-OH) | 1840 nM
2 | CC(C)C[C@H](NC(=O)[C@H](CCCCN)NC(=O)[C@H](CCCCN)NC(=O)[C@H](CC(=O)O)NC(=O)[C@H](Cc1ccc(O)cc1)NC(=O)[C@H](CC(C)C)NC(=O)[C@H](CC(N)=O)NC(=O)[C@H](Cc1ccc(O)cc1)NC(=O)[C@@H](N)CCCNC(=N)N)C(=O)O [EBA175_1316] (H-RYNLYDKKL-OH) | 172 nM
3 | C[C@@H](O)[C@H](NC(=O)[C@H](Cc1ccccc1)NC(=O)[C@H](Cc1ccc(O)cc1)NC(=O)[C@@H](N)CO)C(=O)N[C@@H](Cc1ccc(O)cc1)C(=O)N[C@@H](CC(=O)O)C(=O)N[C@@H](CO)C(=O)N[C@@H](CCC(=O)O)C(=O)N[C@@H](CCC(=O)O)C(=O)N[C@@H](Cc1ccc(O)cc1)C(=O)O [EBA175_1390] (H-SYFTYDSEEY-OH) | 22300 nM

same assay, conditions: allele A*2402; fluorescence polarization competition

Row | Compound | IC50 (nM), in vitro HLA binding affinity
4 | GYNWGNYNTE [AMA1_396] | Non-binder

same assay, conditions: allele A*2402; fluorescence polarization competition; read-out: IC50 (nM), in vitro HLA binding affinity

Row | Compound | IC50
5 | CC[C@H](C)[C@H](NC(=O)[C@@H](N)CCSC)C(=O)N[C@H](C(=O)N1CCC[C@H]1C(=O)N[C@@H](Cc1ccccc1)C(=O)N[C@@H](Cc1c[nH]cn1)C(=O)N[C@@H](CCCCN)C(=O)N[C@@H](CCCCN)C(=O)N[C@@H](Cc1ccccc1)C(=O)O)[C@@H](C)CC [CYRPA_001] (H-MIIPFHKKF-OH) | 295 nM
6 | CC[C@H](C)[C@H](NC(=O)[C@H](Cc1ccccc1)NC(=O)[C@H](CCCCN)NC(=O)[C@H](CCCCN)NC(=O)[C@H](Cc1c[nH]cn1)NC(=O)[C@H](Cc1ccccc1)NC(=O)[C@@H]1CCCN1)C(=O)N[C@@H](CO)C(=O)N[C@@H](Cc1ccccc1)C(=O)N[C@@H](Cc1ccccc1)C(=O)O [CYRPA_004] (H-PFHKKFISFF-OH) | 35.6 nM
7 | CC[C@H](C)[C@H](N)C(=O)N[C@@H](Cc1ccc(O)cc1)C(=O)N[C@@H](CCCCN)C(=O)N[C@@H](CCCNC(=N)N)C(=O)N[C@@H](CCC(=O)O)C(=O)N[C@@H](CC(C)C)C(=O)N[C@@H](Cc1ccc(O)cc1)C(=O)N[C@@H](CC(N)=O)C(=O)N[C@H](C(=O)O)[C@@H](C)CC [CYRPA_055] (H-IYKRELYNI-OH) | 86.8 nM
8 | CC(C)C[C@H](NC(=O)[C@H](CCCCN)NC(=O)[C@H](Cc1ccc(O)cc1)NC(=O)[C@@H](N)CC(N)=O)C(=O)NCC(=O)N[C@H](C(=O)N[C@@H](CCC(N)=O)C(=O)N[C@@H](Cc1ccc(O)cc1)C(=O)N[C@@H](Cc1ccccc1)C(=O)N[C@@H](Cc1ccccc1)C(=O)O)C(C)C [CYRPA_218] (H-NYKLGVQYFF-OH) | 26300 nM
9 | CC[C@H](C)[C@H](N)C(=O)N[C@@H](Cc1ccccc1)C(=O)N[C@@H](Cc1ccccc1)C(=O)N[C@@H](CC(N)=O)C(=O)N[C@@H](CC(N)=O)C(=O)N[C@@H](CCC(=O)O)C(=O)N[C@@H](CC(N)=O)C(=O)N[C@@H](CO)C(=O)N[C@H](C(=O)O)[C@@H](C)CC [CYRPA_305] (H-IFFNNENSI-OH) | 56.9 nM
10 | CC[C@H](C)[C@H](NC(=O)[C@H](Cc1ccccc1)NC(=O)[C@H](CC(C)C)NC(=O)[C@H](Cc1ccc(O)cc1)NC(=O)[C@@H](N)CCCCN)C(=O)N1CCC[C@H]1C(=O)N[C@@H](CO)C(=O)N[C@@H](Cc1c[nH]cn1)C(=O)N[C@@H](CC(N)=O)C(=O)O [RH5_096] (H-KYLFIPSHN-OH) | 6120 nM
11 | CC[C@H](C)[C@H](NC(=O)[C@H](Cc1ccccc1)NC(=O)[C@@H](N)CC(C)C)C(=O)N1CCC[C@H]1C(=O)N[C@@H](CO)C(=O)N[C@@H](Cc1c[nH]cn1)C(=O)N[C@@H](CC(N)=O)C(=O)N[C@@H](CO)C(=O)N[C@@H](Cc1ccccc1)C(=O)O [RH5_098] (H-LFIPSHNSF-OH) | 141 nM
12 | CC[C@H](C)[C@H](NC(=O)[C@H](Cc1ccccc1)NC(=O)[C@@H](N)CO)C(=O)N[C@@H](CCCCN)C(=O)N[C@@H](CCCCN)C(=O)N[C@@H](Cc1ccc(O)cc1)C(=O)N[C@@H](CO)C(=O)N[C@H](C(=O)N[C@@H](Cc1ccccc1)C(=O)O)C(C)C [RH5_105] (H-SFIKKYSVF-OH) | 38.3 nM
13 | CC[C@H](C)[C@H](NC(=O)[C@@H](NC(=O)[C@H](Cc1ccccc1)NC(=O)[C@@H](N)CC(=O)O)C(C)C)C(=O)N[C@H](C(=O)N1CCC[C@H]1C(=O)N[C@@H](Cc1c[nH]cn1)C(=O)N[C@@H](Cc1ccc(O)cc1)C(=O)N[C@H](C(=O)N[C@@H](Cc1ccccc1)C(=O)O)[C@@H](C)O)[C@@H](C)CC [RH5_172] (H-DFVIIPHYTF-OH) | 289 nM
14 | CC(C)C[C@H](NC(=O)[C@H](Cc1c[nH]cn1)NC(=O)[C@H](CCCCN)NC(=O)[C@H](Cc1ccc(O)cc1)NC(=O)[C@H](Cc1ccc(O)cc1)NC(=O)[C@H](CC(=O)O)NC(=O)[C@H](CC(C)C)NC(=O)[C@H](Cc1ccccc1)NC(=O)[C@@H](N)[C@@H](C)O)C(=O)O [RH5_180] (H-TFLDYYKHL-OH) | 215 nM
15 | CC[C@H](C)[C@H](NC(=O)[C@H](CO)NC(=O)[C@H](CC(N)=O)NC(=O)[C@H](Cc1ccc(O)cc1)NC(=O)[C@@H](N)CO)C(=O)N[C@@H](Cc1ccc(O)cc1)C(=O)N[C@@H](Cc1c[nH]cn1)C(=O)N[C@@H](CCCCN)C(=O)N[C@@H](CO)C(=O)O [RH5_189] (H-SYNSIYHKS-OH) | 57700 nM
16 | CC[C@H](C)[C@H](NC(=O)[C@H](CCC(=O)O)NC(=O)[C@H](CCC(=O)O)NC(=O)[C@H](CO)NC(=O)[C@@H](NC(=O)[C@H](CC(=O)O)NC(=O)[C@H](Cc1ccc(O)cc1)NC(=O)[C@H](CCCNC(=N)N)NC(=O)[C@H](Cc1ccc(O)cc1)NC(=O)[C@@H](N)CO)[C@@H](C)CC)C(=O)O [RH5_251] (H-SYRYDISEEI-OH) | 363 nM
17 | CSCC[C@H](NC(=O)[C@@H](N)CC(=O)O)C(=O)N[C@@H](CCCCN)C(=O)N[C@@H](CC(N)=O)C(=O)N[C@@H](Cc1ccc(O)cc1)C(=O)NCC(=O)N[C@H](C(=O)N[C@@H](CC(N)=O)C(=O)N[C@@H](CC(C)C)C(=O)N[C@@H](Cc1ccccc1)C(=O)O)[C@@H](C)O [RH5_331] (H-DMKNYGTNLF-OH) | 5310 nM
18 | CC[C@H](C)[C@H](N)C(=O)N[C@@H](CCCCN)C(=O)N[C@@H](CC(C)C)C(=O)N[C@@H](CC(N)=O)C(=O)N[C@H](C(=O)N[C@@H](Cc1c[nH]c2ccccc12)C(=O)N[C@@H](CCCNC(=N)N)C(=O)N[C@H](C(=O)N[C@@H](Cc1ccccc1)C(=O)O)[C@@H](C)O)[C@@H](C)CC [RH5_442] (H-IKLNIWRTF-OH) | 1420 nM
19 | CC[C@H](C)[C@H](N)C(=O)N[C@@H](Cc1c[nH]c2ccccc12)C(=O)N[C@@H](CCCNC(=N)N)C(=O)N[C@H](C(=O)N[C@@H](Cc1ccccc1)C(=O)N[C@@H](CCC(N)=O)C(=O)N[C@@H](CCCCN)C(=O)N[C@@H](CC(=O)O)C(=O)N[C@@H](CCC(=O)O)C(=O)N[C@@H](CC(C)C)C(=O)O)[C@@H](C)O [RH5_446] (H-IWRTFQKDEL-OH) | 625 nM
20 | CC[C@H](C)[C@H](N)C(=O)N[C@@H](Cc1ccccc1)C(=O)N[C@@H](Cc1c[nH]cn1)C(=O)N[C@@H](Cc1c[nH]cn1)C(=O)N[C@@H](CC(C)C)C(=O)N[C@H](C(=O)N[C@@H](Cc1ccc(O)cc1)C(=O)N[C@H](C(=O)N[C@@H](CC(C)C)C(=O)O)C(C)C)[C@@H](C)CC [RH5_493] (H-IFHHLIYVL-OH) | 9590 nM
21 | CC[C@H](C)[C@H](NC(=O)[C@@H](NC(=O)[C@H](Cc1ccc(O)cc1)NC(=O)[C@@H](NC(=O)[C@H](Cc1ccc(O)cc1)NC(=O)[C@H](CCCCN)NC(=O)[C@H](CC(N)=O)NC(=O)[C@H](CC(C)C)NC(=O)[C@H](Cc1ccc(O)cc1)NC(=O)[C@H](C)N)C(C)C)[C@@H](C)O)C(=O)O [RIPR_0063] (H-AYLNKYVYTI-OH) | 127 nM
22 | CC(C)[C@H](NC(=O)[C@H](CCCNC(=N)N)NC(=O)[C@H](Cc1ccc(O)cc1)NC(=O)[C@H](CS)NC(=O)[C@H](CO)NC(=O)[C@@H](NC(=O)[C@H](Cc1ccc(O)cc1)NC(=O)[C@H](C)N)C(C)C)C(=O)N[C@@H](CO)C(=O)N[C@@H](Cc1ccccc1)C(=O)O [RIPR_0412] (H-AYVSCYRVSF-OH) | 56.9 nM
23 | CC[C@H](C)[C@H](NC(=O)[C@H](Cc1ccc(O)cc1)NC(=O)[C@@H]1CCCN1)C(=O)N[C@@H](CO)C(=O)N[C@@H](CCCCN)C(=O)N[C@@H](Cc1ccc(O)cc1)C(=O)NCC(=O)N[C@@H](CC(N)=O)C(=O)N[C@@H](CCCCN)C(=O)N[C@@H](CC(C)C)C(=O)O [RIPR_0664] (H-PYISKYGNKL-OH) | 180 nM
24 | CC[C@H](C)[C@H](NC(=O)[C@H](CS)NC(=O)[C@H](CCC(=O)O)NC(=O)CNC(=O)[C@H](CCCNC(=N)N)NC(=O)[C@H](CO)NC(=O)[C@H](CO)NC(=O)[C@H](CCCNC(=N)N)NC(=O)[C@H](Cc1ccc(O)cc1)NC(=O)[C@@H](N)Cc1ccc(O)cc1)C(=O)O [RIPR_0805] (H-YYRSSRGECI-OH) | 175 nM
